Measurements reported in ChEMBL document CHEMBL4706499, “PTG-0861: A novel HDAC6-selective inhibitor as a therapeutic strategy in acute myeloid leukaemia” (Eur J Med Chem, 2020).

Tests used:
MV4-11 [1] = experiment: Induction of apoptosis in human MV4-11 cells assessed as early apoptotic cells at 2 microM measured after 18 hrs by Annexin V/Propidium iodide stain based Flow cytometry assay (reference value: 1.7%); format: functional
MV4-11 [2] = experiment: Induction of apoptosis in human MV4-11 cells assessed as early apoptotic cells at 0.5 microM measured after 18 hrs by Annexin V/Propidium iodide stain based Flow cytometry assay (reference value: 1.7%); format: functional
Histone deacetylase 6 = target: T1, Histone deacetylase 6 (Danio rerio, UniProt F8W4B7); experiment: Inhibition of N-terminal 6 His-SUMO tagged Zebrafish HDAC6 CD2 domain expressed in Escherichia coli BL21(DE3) RILP pretreated for 10 mins before FITC-M344 addition and measured after 10 mins by fluorescence polarization competition assay
T1 sequence (F8W4B7 whole entry): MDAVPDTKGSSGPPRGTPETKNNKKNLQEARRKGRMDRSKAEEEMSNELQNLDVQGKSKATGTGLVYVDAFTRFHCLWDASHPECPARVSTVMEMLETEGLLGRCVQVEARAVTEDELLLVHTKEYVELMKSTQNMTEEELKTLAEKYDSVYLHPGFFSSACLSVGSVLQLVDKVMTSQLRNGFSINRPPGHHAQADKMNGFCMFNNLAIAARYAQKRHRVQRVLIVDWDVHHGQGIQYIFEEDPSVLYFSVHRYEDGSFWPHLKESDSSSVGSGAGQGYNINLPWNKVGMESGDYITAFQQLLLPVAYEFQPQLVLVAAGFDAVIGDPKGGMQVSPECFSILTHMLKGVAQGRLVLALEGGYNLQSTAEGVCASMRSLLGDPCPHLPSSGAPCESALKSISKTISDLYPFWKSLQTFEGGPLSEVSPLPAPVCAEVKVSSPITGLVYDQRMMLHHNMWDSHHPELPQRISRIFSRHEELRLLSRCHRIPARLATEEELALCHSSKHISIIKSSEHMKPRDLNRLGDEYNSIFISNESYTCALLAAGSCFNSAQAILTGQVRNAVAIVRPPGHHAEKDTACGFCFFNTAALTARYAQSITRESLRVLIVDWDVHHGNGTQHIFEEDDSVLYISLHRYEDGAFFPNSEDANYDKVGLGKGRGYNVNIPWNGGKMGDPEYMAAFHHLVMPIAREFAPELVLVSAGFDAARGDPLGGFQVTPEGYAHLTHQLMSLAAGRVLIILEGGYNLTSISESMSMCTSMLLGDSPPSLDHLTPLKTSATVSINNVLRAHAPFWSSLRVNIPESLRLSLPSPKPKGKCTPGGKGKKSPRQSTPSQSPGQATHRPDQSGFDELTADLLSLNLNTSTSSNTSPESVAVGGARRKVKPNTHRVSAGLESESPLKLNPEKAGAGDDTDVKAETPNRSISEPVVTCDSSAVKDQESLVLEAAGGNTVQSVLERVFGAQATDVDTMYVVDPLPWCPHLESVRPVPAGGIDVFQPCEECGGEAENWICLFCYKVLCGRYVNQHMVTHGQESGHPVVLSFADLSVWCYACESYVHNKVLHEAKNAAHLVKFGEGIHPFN

MV4-11 [3] = experiment: Induction of apoptosis in human MV4-11 cells assessed as viable cells at 0.5 microM measured after 18 hrs by Annexin V/Propidium iodide stain based Flow cytometry assay (reference value: 53.27%); format: functional; conditions: read-out: Activity
Histone deacetylase 2 = Histone deacetylase 2 (Homo sapiens, UniProt Q92769); experiment: Inhibition of recombinant full length human HDAC2 expressed in SF9 baculovirus using FAM- labelled acetylated peptide as substrate measured by Electrophoretic mobility shift assay
Histone deacetylase 2, sequence (Q92769 whole entry): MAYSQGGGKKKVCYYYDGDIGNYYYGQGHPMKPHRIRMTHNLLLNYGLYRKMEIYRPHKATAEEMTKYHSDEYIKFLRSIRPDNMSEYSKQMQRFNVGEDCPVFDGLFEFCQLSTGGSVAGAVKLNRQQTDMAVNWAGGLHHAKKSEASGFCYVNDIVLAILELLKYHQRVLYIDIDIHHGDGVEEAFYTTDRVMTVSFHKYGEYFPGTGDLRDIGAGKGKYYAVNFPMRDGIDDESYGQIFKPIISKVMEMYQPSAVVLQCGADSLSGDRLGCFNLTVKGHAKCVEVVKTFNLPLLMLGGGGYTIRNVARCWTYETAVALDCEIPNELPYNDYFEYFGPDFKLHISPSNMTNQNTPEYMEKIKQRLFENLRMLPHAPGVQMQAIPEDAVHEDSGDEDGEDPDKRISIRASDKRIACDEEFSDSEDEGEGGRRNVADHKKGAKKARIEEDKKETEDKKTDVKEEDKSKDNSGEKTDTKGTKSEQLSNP

[4] = Cytotoxicity against human MRC9 cells measured after 72 hrs by spectrophotometer method; format: cell-based; conditions: MRC9, 72 h
[5] = target: T2, Polyamine deacetylase HDAC10 (Homo sapiens, UniProt Q969S8); experiment: Inhibition of recombinant full length human HDAC10 expressed in SF9 baculovirus using FAM- labelled acetylated peptide as substrate measured by Electrophoretic mobility shift assay
T2 sequence (Q969S8 whole entry): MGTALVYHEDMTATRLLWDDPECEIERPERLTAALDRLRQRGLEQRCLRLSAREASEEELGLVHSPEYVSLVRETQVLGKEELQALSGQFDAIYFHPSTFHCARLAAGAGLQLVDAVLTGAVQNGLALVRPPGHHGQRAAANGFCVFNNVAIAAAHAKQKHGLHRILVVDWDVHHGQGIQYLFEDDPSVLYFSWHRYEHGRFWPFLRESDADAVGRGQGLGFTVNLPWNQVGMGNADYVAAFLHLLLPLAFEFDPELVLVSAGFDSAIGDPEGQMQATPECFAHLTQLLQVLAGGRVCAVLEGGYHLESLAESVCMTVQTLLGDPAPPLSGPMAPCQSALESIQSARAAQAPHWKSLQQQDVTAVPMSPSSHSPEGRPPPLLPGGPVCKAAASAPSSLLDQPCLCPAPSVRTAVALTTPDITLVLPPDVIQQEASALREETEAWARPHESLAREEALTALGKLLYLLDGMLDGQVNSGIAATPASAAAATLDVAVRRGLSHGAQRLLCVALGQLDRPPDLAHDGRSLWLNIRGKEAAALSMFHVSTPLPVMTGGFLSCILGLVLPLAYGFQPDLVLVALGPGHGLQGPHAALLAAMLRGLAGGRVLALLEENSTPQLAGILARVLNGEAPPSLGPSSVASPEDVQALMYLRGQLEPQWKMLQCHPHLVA

MV4-11 [6] = experiment: Induction of apoptosis in human MV4-11 cells assessed as early apoptotic cells at 4 microM measured after 18 hrs by Annexin V/Propidium iodide stain based Flow cytometry assay (reference value: 1.7%); format: functional
MV4-11 [7] = experiment: Induction of apoptosis in human MV4-11 cells assessed as late apoptotic cells at 1 microM measured after 18 hrs by Annexin V/Propidium iodide stain based Flow cytometry assay (reference value: 4.91%); format: functional
RPMI-8226 = experiment: Cytotoxicity against human RPMI-8226 cells measured after 72 hrs by spectrophotometer method; format: functional, cell-based; conditions: RPMI-8226, 72 h
HUVEC = experiment: Cytotoxicity against human HUVEC cells measured after 72 hrs by spectrophotometer method; format: cell-based
[8] = Glutathione reactivity at pH 7.4 assessed as compound remaining measured after 60 mins by LC-MS/MS method; format: physicochemical; conditions: glutathione solution, read-out: Stabilty
MV4-11 [9] = experiment: Cytotoxicity against human MV4-11 cells measured after 72 hrs by spectrophotometer method; format: functional, cell-based; conditions: MV4-11, 72 h
[10] = Cmax in CD1 mouse at 20 mg/kg, ip measured after 24 hrs by LC/MS/MS method; format: ADME, organism-based; set-up: route intraperitoneal, dose 20 mg/kg, time 24 hrs; conditions: in vivo
MV4-11 [11] = experiment: Induction of apoptosis in human MV4-11 cells assessed as late apoptotic cells at 0.5 microM measured after 18 hrs by Annexin V/Propidium iodide stain based Flow cytometry assay (reference value: 4.91%); format: functional

IC50 (Histone deacetylase 6): 74 nM
IC50 (Histone deacetylase 2): > 1000 nM
IC50 [5]: > 1000 nM
remaining at 1 h [8]: 98%
Cmax [10]: 526 ng/mL
SMILES: O=C(NO)c1ccc(CNC(=O)c2c(F)c(F)c(F)c(F)c2F)cc1
Activity (MV4-11 [1]): 7.73%
Activity (MV4-11 [2]): 2.87%
viability at 0.5 µM (MV4-11 [3]): 47.3%
IC50 [4]: > 50 µM
Activity (MV4-11 [6]): 18%
Activity (MV4-11 [7]): 11.15%
IC50 (RPMI-8226): 4.94 µM
IC50 (HUVEC): 10.3 µM
IC50 (MV4-11 [9]): 1850 nM
Activity (MV4-11 [11]): 7.46%
